Source: article PMC6003104, “Discovery of a Short‐Chain Dehydrogenase from Catharanthus roseus that Produces a New Monoterpene Indole Alkaloid” (Chembiochem, 2018)

Molecular target: T1, vitrosamine synthase (VAS, Cro013448) (Catharanthus roseus, UniProt A0A0C5DR25)
T1 construct: N-terminal His6 tag (pOPINF) kept; E. coli SoluBL21; calculated 34469 Da; monomer in solution, dimer in crystal; modelled residues 7-299
Assay: X-ray crystal structure, […] Å
Type: binding
Details: co-purified from E. coli as holoenzyme; crystals pH 4.0, 20 °C; active site, next to Ser167/Tyr223/Lys227

T1 sequence (A0A0C5DR25 entry or part of it): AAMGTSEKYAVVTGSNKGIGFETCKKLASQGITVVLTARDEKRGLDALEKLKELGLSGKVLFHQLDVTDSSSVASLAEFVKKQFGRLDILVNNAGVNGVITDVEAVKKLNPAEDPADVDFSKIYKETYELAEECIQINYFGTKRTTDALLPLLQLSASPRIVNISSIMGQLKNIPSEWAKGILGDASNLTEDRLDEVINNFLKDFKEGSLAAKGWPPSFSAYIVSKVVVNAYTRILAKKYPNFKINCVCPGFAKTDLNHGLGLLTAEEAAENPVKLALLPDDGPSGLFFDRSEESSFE

In the case of `NC(=O)c1ccc[n+]([C@@H]2O[C@H](COP(=O)(O)OP(=O)(O)OC[C@H]3O[C@@H](n4cnc5c(N)ncnc54)[C@H](OP(=O)(O)O)[C@@H]3O)[C@@H](O)[C@H]2O)c1` [NADP+], the “X-ray crystal structure, 1.55 Å” value is reported as “the apo enzyme active site also had a high occupancy of NADP^+”.
